Reference: ChEMBL document CHEMBL5352493, “Dual inhibitors of ASK1 and PDK1 kinases: Design, synthesis, molecular docking and mechanism studies of N-benzyl pyridine-2-one containing derivatives as anti-fibrotic agents” (Eur J Med Chem, 2023)

Columns and labels:
[1] = Antiproliferative against rat NRK-49F cells measured after 48 hrs by CCK8 assay; type: toxicity, cell-based
[2] = Antiproliferative against HLF1 cells measured after 48 hrs by CCK8 assay; type: toxicity, cell-based; settings: human, HFL1 cells (description prints HLF1)
[3] = Antiproliferative against rat HSC-T6 cells measured after 48 hrs by CCK8 assay; type: toxicity, cell-based
[4] = target: T1, Mitogen-activated protein kinase kinase kinase 5 (Homo sapiens, UniProt Q99683); experiment: Inhibition of human recombinant ASK1 using MBP as substrate preincubated for 1 hr followed by reagent addition incubated for 40 mins by ATP-Glo kinase assay
T1 sequence (Q99683 whole entry): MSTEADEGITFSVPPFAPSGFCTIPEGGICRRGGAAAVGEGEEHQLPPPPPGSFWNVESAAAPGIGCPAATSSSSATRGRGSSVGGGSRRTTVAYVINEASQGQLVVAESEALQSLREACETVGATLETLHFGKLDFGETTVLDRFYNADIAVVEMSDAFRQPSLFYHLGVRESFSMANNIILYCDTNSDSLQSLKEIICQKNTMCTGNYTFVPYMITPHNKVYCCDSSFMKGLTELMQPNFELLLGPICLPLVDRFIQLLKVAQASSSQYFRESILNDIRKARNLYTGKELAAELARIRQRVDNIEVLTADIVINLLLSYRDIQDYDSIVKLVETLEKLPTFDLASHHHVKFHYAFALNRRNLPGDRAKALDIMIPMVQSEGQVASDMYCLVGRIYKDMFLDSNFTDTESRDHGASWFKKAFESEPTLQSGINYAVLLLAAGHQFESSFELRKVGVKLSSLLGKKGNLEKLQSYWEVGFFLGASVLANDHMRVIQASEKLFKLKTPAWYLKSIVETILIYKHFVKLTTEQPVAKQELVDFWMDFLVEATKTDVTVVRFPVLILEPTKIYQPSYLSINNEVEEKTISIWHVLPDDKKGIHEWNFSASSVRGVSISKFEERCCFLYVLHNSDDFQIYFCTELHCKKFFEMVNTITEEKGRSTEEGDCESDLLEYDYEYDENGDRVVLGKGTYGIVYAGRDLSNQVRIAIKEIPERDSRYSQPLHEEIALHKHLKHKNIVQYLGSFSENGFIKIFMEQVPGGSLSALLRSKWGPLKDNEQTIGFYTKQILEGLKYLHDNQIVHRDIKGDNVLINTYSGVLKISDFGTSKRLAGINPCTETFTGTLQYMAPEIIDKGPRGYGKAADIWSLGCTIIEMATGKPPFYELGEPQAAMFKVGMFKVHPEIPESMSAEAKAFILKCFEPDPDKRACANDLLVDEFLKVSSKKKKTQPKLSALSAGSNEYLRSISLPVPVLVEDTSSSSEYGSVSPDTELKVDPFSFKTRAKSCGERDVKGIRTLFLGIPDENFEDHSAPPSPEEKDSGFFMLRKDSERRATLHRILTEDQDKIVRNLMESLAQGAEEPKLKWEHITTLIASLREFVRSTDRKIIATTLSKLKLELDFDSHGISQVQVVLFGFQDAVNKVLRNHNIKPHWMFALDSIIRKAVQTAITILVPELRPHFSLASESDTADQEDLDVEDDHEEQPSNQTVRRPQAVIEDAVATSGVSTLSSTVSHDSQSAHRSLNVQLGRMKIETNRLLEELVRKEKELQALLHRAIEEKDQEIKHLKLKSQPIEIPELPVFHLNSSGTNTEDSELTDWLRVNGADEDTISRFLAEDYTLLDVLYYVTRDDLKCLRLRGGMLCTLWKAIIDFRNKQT

[5] = Antiproliferative against human BEAS-2B cells measured after 48 hrs by CCK8 assay; type: toxicity, cell-based
[6] = target: T1, Mitogen-activated protein kinase kinase kinase 5; experiment: Inhibition of ASK1 (unknown origin)

Row | Structure (SMILES) | IC50 at 48 h [1] | IC50 at 48 h [2] | IC50 at 48 h [3] | IC50 [4] | IC50 at 48 h [5] | IC50 [6]
1 | CCCCn1cnnc1-c1cccc(NC(=O)c2cc3c(C(F)(F)F)nn(C)c3[nH]c2=O)n1 | > 80 µM | > 80 µM | > 80 µM | 978 nM |  | 
2 | Cn1nc(C(F)(F)F)c2cc(C(=O)Nc3cccc(-c4nncn4C4CCCC4)n3)c(OCc3ccccc3F)nc21 | 11.4 µM | 7.99 µM | 14.8 µM | 1020 nM |  | 
3 | Cn1nc(C(F)(F)F)c2cc(C(=O)Nc3cccc(-c4nncn4C4CC4)n3)c(=O)[nH]c21 | > 80 µM | > 80 µM | > 80 µM | 489 nM |  | 
4 | Cn1nc(C(F)(F)F)c2cc(C(=O)Nc3cccc(-c4nncn4C4CCCCC4)n3)c(=O)[nH]c21 | > 80 µM | > 80 µM | > 80 µM | > 5000 nM |  | 
5 | O=C(Nc1cccc(-c2nncn2C2CC2)n1)c1cc(-c2ccc3[nH]ccc3c2)cn(Cc2ccccc2F)c1=O | 5.75 µM | 18.7 µM | > 80 µM | > 5000 nM |  | 
6 | O=C(Nc1cccc(-c2nncn2C2CC2)n1)c1cc(-c2cnc(Cl)nc2)cn(Cc2ccccc2F)c1=O | > 80 µM | 29.2 µM | > 80 µM | 2370 nM |  | 
7 | O=C(Nc1cccc(-c2nncn2C2CC2)n1)c1cc(Br)cn(Cc2ccccc2F)c1=O | > 80 µM | > 80 µM | > 80 µM | > 5000 nM |  | 
8 | CC(C)n1cnnc1-c1cccc(NC(=O)c2cc3c(C(F)(F)F)nn(C)c3[nH]c2=O)n1 | > 80 µM | > 80 µM | > 80 µM | 2660 nM |  | 
9 | O=C(Nc1cccc(-c2nncn2C2CC2)n1)c1cc(-c2cnn(C(F)F)c2)cn(Cc2ccccc2F)c1=O | 58.5 µM | > 80 µM | > 80 µM | 291 nM |  | 
10 | Cn1nc(C(F)(F)F)c2cc(C(=O)Nc3cccc(-c4nncn4C4CCCC4)n3)c(=O)[nH]c21 | > 80 µM | > 80 µM | > 80 µM | 2180 nM |  | 
11 | CCn1c(=O)c(C(=O)Nc2cccc(-c3nncn3C3CCCCC3)n2)cc2c(C(F)(F)F)nn(C)c21 | > 80 µM | > 80 µM | > 80 µM | 1570 nM |  | 
12 | Cn1nc(C(F)(F)F)c2cc(C(=O)Nc3cccc(-c4nncn4C4CC4)n3)c(OCc3ccccc3F)nc21 | 55.2 µM | 62.5 µM | > 80 µM | 1290 nM |  | 
13 | CC(C)n1cnnc1-c1cccc(NC(=O)c2cc3c(C(F)(F)F)nn(C)c3nc2OCc2ccccc2F)n1 | > 80 µM | 17.9 µM | > 80 µM | > 5000 nM |  | 
14 | O=C(N[C@@H](COc1ccc2[nH]c(=O)[nH]c2c1)c1ccccc1)c1cccn(Cc2ccc(F)c(F)c2)c1=O | 40.4 µM | 64.8 µM | 36.2 µM | > 5000 nM | 96.4 µM | 
15 | O=C(Nc1cccc(-c2nncn2C2CC2)n1)c1cc(-c2cnn(C3CCC3)c2)cn(Cc2ccccc2F)c1=O | > 80 µM | 10.7 µM | > 80 µM | 289 nM |  | 
16 | O=C(Nc1cccc(-c2nncn2C2CC2)c1)c1cc(-n2cnc(C3CC3)c2)ccn1 | 34.4 µM | 67.9 µM | 33.4 µM |  | 90.2 µM | 
17 | Cc1cc(F)c(C(=O)Nc2cccc(-c3nncn3C(C)C)c2)cc1-n1cnc(C2CC2)c1 |  |  |  |  |  | 12.9 nM
18 | CC(C)n1cnnc1-c1cccc(NC(=O)c2cc3c(C(F)(F)F)nn(C)c3n(C)c2=O)c1 | 56.1 µM | > 80 µM | > 80 µM | > 5000 nM |  | 
19 | O=C(Nc1cccc(-c2nncn2C2CC2)n1)c1cc(-c2ccc3scnc3c2)cn(Cc2ccccc2F)c1=O | 34.2 µM | 68.3 µM | > 80 µM | > 5000 nM |  | 
20 | O=C(Nc1cccc(-c2nncn2C2CC2)n1)c1cc(-c2cccnc2)cn(Cc2ccccc2F)c1=O | > 80 µM | 64.2 µM | > 80 µM | > 5000 nM |  | 
21 | Cn1nc(C(F)(F)F)c2cc(C(=O)Nc3cccc(-c4nncn4C4CCCCC4)c3)c(=O)[nH]c21 | > 80 µM | > 80 µM | > 80 µM | > 5000 nM |  | 
22 | O=C(Nc1cccc(-c2nncn2C2CC2)n1)c1cc(-c2cccc3[nH]ccc23)cn(Cc2ccccc2F)c1=O | 47 µM | > 80 µM | > 80 µM | > 5000 nM |  | 
23 | CC(C)n1cnnc1-c1cccc(NC(=O)c2cc3c(C(F)(F)F)nn(C)c3[nH]c2=O)c1 | > 80 µM | > 80 µM | > 80 µM | > 5000 nM |  | 
24 | Cn1nc(C(F)(F)F)c2cc(C(=O)Nc3cccc(-c4nncn4C4CCCC4)c3)c(=O)[nH]c21 | > 80 µM | > 80 µM | > 80 µM | > 5000 nM |  | 
